Results reported in patent US20260042764A1, “COMPOSITIONS AND METHODS FOR INHIBITION OF KRAS” (TheRas, Inc., priority 2022, published 2026).

How the values were obtained:
GP2d cells (KRAS G12D) = assay: Cell-based pERK HTRF assay in GP2d cell (Biological Example 2); details: GP2d (KRAS G12D) cells
Outline: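 Treatment with test compounds lasted one hour in DMEM containing 10% FBS, with DMSO held at 0.25%. Dilution series: 9 points, half-log spacing, highest 1 μM or 100 nM. Lysates were incubated 4–24 h at room temperature with antibody mix, then HTRF was read at 320 nm excitation.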

[1] = target: T1, Avi-KRAS G12C (2-169) GTP/RAF1 RBD-3xFLAG (51-131) (Homo sapiens, UniProt P01116, G12C); assay: Raf1-KRAS G12C-GTP disruption HTRF assay (Biological Example 3); format: binding; details: KRAS G12C, GTP-loaded
T1 construct: Avi-KRAS G12C (2-169)
Outline: (§1)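 50 nM Avi-KRAS (2-169) GTP/RAF1 RBD complex; 75 nM RBD-Avi; pH 7.5 Tris buffer, 10% DMSO; cpd 30 μM top, 3x, 10 pts; 1 h RT, 700 rpm; HTRF, % of DMSO.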

[2] = target: T2, Avi-KRAS G12D (2-169) GTP/RAF1 RBD-3xFLAG (51-131) (Homo sapiens, UniProt P01116, G12D); assay: Raf1-KRAS G12D-GTP disruption HTRF assay (Biological Example 3); format: binding; details: KRAS G12D, GTP-loaded
T2 construct: Avi-KRAS G12D (2-169)
Outline: as §1

[3] = target: T3, Avi-KRAS WT (2-169) GTP/RAF1 RBD-3xFLAG (51-131) (Homo sapiens, UniProt P01116); assay: Raf1-KRAS WT-GTP disruption HTRF assay (Biological Example 3); format: binding; details: KRAS WT, GTP-loaded
T3 construct: Avi-KRAS WT (2-169)
Outline: as §1

T3 sequence (P01116 2-169 isoform P01116-2): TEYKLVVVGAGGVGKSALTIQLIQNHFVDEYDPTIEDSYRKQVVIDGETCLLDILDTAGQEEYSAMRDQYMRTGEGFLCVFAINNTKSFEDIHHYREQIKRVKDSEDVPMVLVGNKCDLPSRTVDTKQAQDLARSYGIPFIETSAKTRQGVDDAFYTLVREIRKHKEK
T1 sequence (P01116 2-169 isoform P01116-2 G12C): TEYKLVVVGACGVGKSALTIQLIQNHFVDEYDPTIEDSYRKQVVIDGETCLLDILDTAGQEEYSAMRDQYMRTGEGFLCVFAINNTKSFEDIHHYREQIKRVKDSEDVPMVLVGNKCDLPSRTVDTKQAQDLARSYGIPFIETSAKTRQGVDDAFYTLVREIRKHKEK
T2 sequence (P01116 2-169 isoform P01116-2 G12D): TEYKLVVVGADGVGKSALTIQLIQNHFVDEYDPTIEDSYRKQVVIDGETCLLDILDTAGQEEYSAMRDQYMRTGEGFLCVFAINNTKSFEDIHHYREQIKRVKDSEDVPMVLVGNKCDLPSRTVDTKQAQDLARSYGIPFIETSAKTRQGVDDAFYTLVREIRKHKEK

Row | SMILES | IC50 (GP2d cells (KRAS G12D); GP2d) [nM] | IC50 (GP2d cells (KRAS G12D); GP2d, pERK HTRF, class symbols) [nM] | IC50 [1] [nM] | IC50 [2] [nM] | IC50 [3] [nM] | IC50 (GP2d cells (KRAS G12D); GP2d, pERK HTRF) [nM] | IC50 (GP2d cells (KRAS G12D)) [nM] | IC50 (GP2d cells (KRAS G12D); pERK HTRF) [nM]
1 | CCN(c1nc(OC[C@@]23CCCN2C[C@H](F)C3)nc2c(F)c(-c3ccc(F)c4sc(N)c(C#N)c34)c(C(F)(F)F)cc12)[C@H]1CCN(C(=O)[C@H]2CCO2)C1 (atropisomer, axis not shown) [Compound 577] | < 100 | < 100 | ≤ 100 | ≤ 100 | ≤ 100 | – | – | –
2 | N#Cc1c(N)sc2c(F)ccc(-c3c(C(F)(F)F)cc4c(N5C[C@H]6C[C@@H]5CO6)nc(OC[C@@]56CCCN5C[C@H](F)C6)nc4c3F)c12 (single isomer, unassigned) [Compound 287] | < 100 | – | – | 100 to 1000 | 100 to 1000 | < 100 | – | –
3 | Cc1c(C(=O)N2CCOCC2)nn2c1CN(c1nc(OCC34CCCN3CC(F)C4)nc3c(F)c(-c4ccc(F)c5sc(N)c(C#N)c45)c(C(F)(F)F)cc13)CC2 (centres unmarked) [Compound 741] | < 100 | < 100 | 100 to 1000 | 100 to 1000 | 100 to 1000 | – | – | –
4 | N#Cc1c(N)sc2c(F)ccc(-c3c(C(F)(F)F)cc4c(N(C5CC5)[C@H]5CCS(=O)(=O)C5)nc(OC[C@@]56CCCN5C[C@H](F)C6)nc4c3F)c12 [Compound 702] | < 100 | < 100 | > 10000 | 1000 to 10000 | > 10000 | – | – | –
5 | CCN(c1nc(OC[C@]23CCCN2C[C@H](F)C3)nc2c(F)c(-c3ccc(F)c4sc(N)c(C#N)c34)c(C(F)(F)F)cc12)[C@H]1CCN(C(=O)C(C)C)C1 [Compound 705] | < 100 | < 100 | 100 to 1000 | 100 to 1000 | 100 to 1000 | – | – | –
6 | CCN(c1nc(OC[C@@]23CCCN2C[C@H](F)C3)nc2c(F)c(-c3ccc(F)c4sc(N)c(C#N)c34)c(C(F)(F)F)cc12)[C@H]1CCN(C(=O)C2CC2(F)F)C1 (some centres unmarked) [Compound 581] | < 100 | < 100 | ≤ 100 | ≤ 100 | 100 to 1000 | – | – | –
7 | CCN(c1nc(OC[C@@]23CCCN2C[C@H](F)C3)nc2c(F)c(-c3ccc(F)c4sc(N)c(C#N)c34)c(C(F)(F)F)cc12)[C@H]1C[C@H]2CCC(=O)N2C1 (atropisomer, axis not shown; (aR)) [Compound 573, 2-amino-4-((S)-4-(ethyl((2S,7aR)-5-oxohexahydro-1H-pyrrolizin-2-yl)amino)-8-fluoro-2-(((2R,7aS)-2-fluorotetrahydro-1H-pyrrolizin-7a(5H)-yl)methoxy)-6-(trifluoromethyl)quinazolin-7-yl)-7-fluorobenzo[b]thiophene-3-carbonitrile] | < 100 | < 100 | ≤ 100 | ≤ 100 | ≤ 100 | – | – | –
8 | CCN(c1nc(OC[C@@]23CCCN2C[C@H](F)C3)nc2c(F)c(-c3ccc(F)c4sc(N)c(C#N)c34)c(C(F)(F)F)cc12)[C@H]1C[C@@H]2CN(C)C(=O)N2C1 (atropisomer, axis not shown) [Compound 605] | < 100 | < 100 | 100 to 1000 | 100 to 1000 | 100 to 1000 | – | – | –
9 | C[C@H](c1cccnc1N)N(C)c1nc(OC[C@@]23CCCN2C[C@H](F)C3)nc2c(F)c(-c3ccc(F)c4sc(N)c(C#N)c34)c(C(F)(F)F)cc12 (atropisomer, axis not shown) [Compound 600] | < 100 | < 100 | ≤ 100 | ≤ 100 | 100 to 1000 | – | – | –
10 | CCN(c1nc(OC[C@@]23CCCN2C[C@H](F)C3)nc2c(F)c(-c3ccc(F)c4sc(N)c(C#N)c34)c(C(F)(F)F)cc12)[C@@H]1CCN(C(=O)C2CC2)C1 [Compound 329] | < 100 | – | – | 100 to 1000 | 100 to 1000 | < 100 | – | –
11 | N#Cc1c(N)sc2c(F)ccc(-c3c(C(F)(F)F)cc4c(N5C[C@H]6C[C@@H]5CO6)nc(OC[C@@]56CCCN5C[C@H](F)C6)nc4c3F)c12 [Compound 253, 2-amino-7-fluoro-4-[8-fluoro-2-[[(2R,8S)-2-fluoro-1,2,3,5,6,7-hexahydropyrrolizin-8-yl]methoxy]-4-[(1R,4R)-2-oxa-5-azabicyclo[2.2.1]heptan-5-yl]-6-(trifluoromethyl)quinazolin-7-yl]benzothiophene-3-carbonitrile] | < 100 | – | – | 100 to 1000 | 100 to 1000 | < 100 | – | –
12 | CCN(c1nc(OC[C@@]23CCCN2C[C@H](F)C3)nc2c(F)c(-c3ccc(F)c4sc(N)c(C#N)c34)c(C(F)(F)F)cc12)[C@H]1CCN(C(=O)C2C[C@@H]2F)C1 (some centres unmarked) [Compound 692] | < 100 | < 100 | ≤ 100 | ≤ 100 | ≤ 100 | – | – | –
13 | N#Cc1c(N)sc2c(F)ccc(-c3c(C(F)(F)F)cc4c(N5CCCOCC5)nc(OC[C@@]56CCCN5C[C@H](F)C6)nc4c3F)c12 [Compound 232] | < 100 | – | – | 100 to 1000 | 100 to 1000 | < 100 | – | –
14 | CCN(c1nc(OC[C@@]23CCCN2C[C@H](F)C3)nc2c(F)c(-c3ccc(F)c4sc(N)c(C#N)c34)c(C(F)(F)F)cc12)[C@@H]1CCN(C(=O)C(C)C)C1 [Compound 328] | < 100 | – | – | 100 to 1000 | 100 to 1000 | < 100 | – | –
15 | CCN(c1nc(OC[C@@]23CCCN2C[C@H](F)C3)nc2c(F)c(-c3ccc(F)c4sc(N)c(C#N)c34)c(C(F)(F)F)cc12)[C@H]1CCN(C(=O)N(C)C)[C@@H]1C (atropisomer, axis not shown) [Compound 749] | < 100 | < 100 | ≤ 100 | ≤ 100 | ≤ 100 | – | – | –
16 | CCN(c1nc(OC[C@@]23CCCN2C[C@H](F)C3)nc2c(F)c(-c3ccc(F)c4sc(N)c(C#N)c34)c(C(F)(F)F)cc12)[C@H]1CCN(C(=O)N2CCN(C(C)=O)CC2)C1 (atropisomer, axis not shown) [Compound 619] | < 100 | < 100 | 100 to 1000 | 100 to 1000 | 100 to 1000 | – | – | –
17 | N#Cc1c(N)sc2c(F)ccc(-c3c(C(F)(F)F)cc4c(N5CCNS(=O)(=O)CC5)nc(OC[C@@]56CCCN5C[C@H](F)C6)nc4c3F)c12 [Compound 245] | < 100 | – | – | 100 to 1000 | 100 to 1000 | < 100 | – | –
18 | C[C@@H]1[C@H](N(C)c2nc(OC[C@@]34CCCN3C[C@H](F)C4)nc3c(F)c(-c4ccc(F)c5sc(N)c(C#N)c45)c(C(F)(F)F)cc23)CCN1C(=O)C1CC1 [Compound 258] | – | – | – | – | – | < 100 | – | –
19 | N#Cc1c(N)sc2c(F)ccc(-c3c(C(F)(F)F)cc4c(N5CC6CC(C5)O6)nc(OC[C@@]56CCCN5C[C@H](F)C6)nc4c3F)c12 [Compound 145] | < 100 | – | – | 100 to 1000 | 1000 to 10000 | < 100 | – | –
20 | CC(=O)N1CC(N(C)c2nc(OCC34CCCN3CC(F)C4)nc3c(F)c(-c4ccc(F)c5sc(N)c(C#N)c45)c(C(F)(F)F)cc23)CC1C (centres unmarked) [Compound 291] | – | – | – | 100 to 1000 | 100 to 1000 | – | < 100 | < 100
21 | N#Cc1c(N)sc2c(F)ccc(-c3c(C(F)(F)F)cc4c(N5CCC[C@@H](O)C5)nc(OC[C@@]56CCCN5C[C@H](F)C6)nc4c3F)c12 [Compound 234] | – | – | – | – | – | < 100 | – | –
22 | CN(C)C(=O)c1cc2n(n1)CCN(c1nc(OC[C@@]34CCCN3C[C@H](F)C4)nc3c(F)c(-c4ccc(F)c5sc(N)c(C#N)c45)c(C(F)(F)F)cc13)C2 [Compound 355] | < 100 | – | – | 100 to 1000 | 1000 to 10000 | < 100 | – | –
23 | N#Cc1c(N)sc2c(F)ccc(-c3c(C(F)(F)F)cc4c(N5CCCC[C@@H](O)C5)nc(OC[C@@]56CCCN5C[C@H](F)C6)nc4c3F)c12 [Compound 286] | < 100 | – | – | 100 to 1000 | 100 to 1000 | < 100 | – | –
24 | CCC(=O)N1CC[C@@H](N(CC)c2nc(OC[C@@]34CCCN3C[C@H](F)C4)nc3c(F)c(-c4ccc(F)c5sc(N)c(C#N)c45)c(C(F)(F)F)cc23)C1 [Compound 327] | < 100 | – | – | 100 to 1000 | 100 to 1000 | < 100 | – | –
25 | CCN(c1nc(OC[C@@]23CCCN2C[C@H](F)C3)nc2c(F)c(-c3ccc(F)c4sc(N)c(C#N)c34)c(C(F)(F)F)cc12)[C@H]1CCN(C(=O)C2CC2)C1 [Compound 331] | < 100 | – | – | 100 to 1000 | 100 to 1000 | < 100 | – | –
26 | N#Cc1c(N)sc2c(F)ccc(-c3c(C(F)(F)F)cc4c(N5CC6CC5CO6)nc(OC[C@@]56CCCN5C[C@H](F)C6)nc4c3F)c12 (some centres unmarked) [Compound 147] | – | – | – | – | – | < 100 | – | –
27 | CC(=O)N1C[C@H](N(C)c2nc(OC[C@@]34CCCN3C[C@H](F)C4)nc3c(F)c(-c4ccc(F)c5sc(N)c(C#N)c45)c(C(F)(F)F)cc23)C[C@@H]1C [Compound 298] | < 100 | – | – | 1000 to 10000 | 100 to 1000 | < 100 | – | –
